Experiments:
3D tumor CT26 spheroids [1] = assay: Inhibition of 3D tumor spheroid growth (Assay #3); type: cell-based, mouse; details: for spheroid growth inhibition compared with reference compound aa: CT26 spheroids, day 10; for 3D growth inhib. (%): 3D tumor CT26 spheroids
Procedure: (§1) Spheroids were prepared by seeding 1500 cells/well in Ultra-Low Attachment 96-well plate (Corning, Merck, Hoeilaart, Belgium) in DMEM supplemented with 10% heat-inactivated FBS. Inhibitors were added on day 4 (mean diameter of spheroids: 300 µm) and renewed every 3 days. Spheroid growth was monitored using live-cell phase contrast microscope (Axio Observer, Zeiss, Zaventem, Belgium); spheroid area, density and morphology were measured using ImageJ software. Confocal fluorescence microscopy (LSM510, Zeiss, Zaventem, Belgium) was used for detecting pimonidazole immunostaining as previously reported. Spheroids from a same experiment were imaged with the same gain and exposure settings. In some experiments, OXPHOSi treatment was combined with irradiation using a ^137Cs γ-irradiator (IBL-637; CIS-BioInternational, Saclay, France) as previously described.
(§2) Figure 5 Inhibition of 3D tumor spheroid growth (Assay #3). […] Drug exposure without (A) or with irradiation (B) was associated with a significant reduction in spheroid sizes vs. untreated spheroids (not shown).

CT26 colon cancer cells = assay: Growth inhibitory effects on cultured CT26 cells (Presto Blue); type: cell-based, mouse; details: CT26 monolayers, 1 µM, 72 h
Source text: (§3) Mouse colorectal CT26 and breast 4T1 cancer cells as well as human cervix cancer SiHa and breast MDA-MD-231 cancer cells were acquired from ATCC where they are regularly authenticated by short tandem repeat profiling. They were stored according to the supplier’s instructions and used within 6 months after resuscitation of frozen aliquots. Cancer cells were maintained in DMEM (Life Technologies, ThermoFischer scientific, Merebelke, Belgium) supplemented with 10% heat-inactivated FBS. All cell lines were tested for mycoplasma contamination with the MycoAlert™ Mycoplasma Detection kit (#LT07-318; Lonza, Verviers, Belgium) before being used. Cell integrity was determined by the Trypan Blue exclusion method (using Bürker chambers) while cell growth was assessed by using the Presto Blue reagent (Life Technologies) according to manufacturer’s instructions.
(§4) Figure 4 Mitochondrial complex I activity inhibition (Assay #2). (A–D). Graphs depict changes in O2 consumption rate (OCR) measured with the Seahorse technology on permeabilized CT26 cancer cells upon successive addition of pyruvate/malate, the indicated inhibitor and succinate. OXPHOS I inhibitor IACS was used as a control in the experiments testing reference compound aa (A), and compound aa (10µM) was used as reference for testing au, ah and at derivatives (B–D) (n = 6 per compound). (E,F). Growth inhibitory effects of cultured CT26 (E) and 4T1 […] cancer cells exposed to 100 nM IACS or 1 µM aa, ag, aj and au compounds for 72 h; data represent the reduced extent (expressed as %) of cell viability (determined with Presto Blue) when compared with vehicle conditions (n = 3).

[2] = system: human cervix Siha cancer cells; assay: Growth inhibitory effects on human cancer cells (Presto Blue), SiHa vs MDA-MB-231; type: cell-based; details: 1 µM
Source text: as §3
Suppl. Figure S3. Growth inhibitory effects of hit compounds on human cancer cells. MDA-M B-231 (A) and Siha (B) cancer cells were exposed to 100 nM IACS or 1 µM aa, ag, aj and au compounds; data represent the reduced extent (expressed as %) of cell viability (determined with Presto Blue) when compared with vehicle conditions (n=3).
(also on this page, place not known: 60Growth inhibitory effects (%) MDA-MB-231 aa au 60Growth inhibitory effects (%))

breast 4T1 cancer cells = assay: Growth inhibitory effects on cultured 4T1 cells (Presto Blue); type: cell-based, mouse; details: 4T1 monolayers, 1 µM, 72 h, compared with CT26
Source text: as §3, §4

[3] = system: colorectal CT26 cancer cells; assay: Compound-induced L-lactate release (Assay #1), CT26; type: cell-based, mouse; details: 10 µM; for L-lactate release compared with reference compound aa: 24 h; for [LAC] increase: 24 h exposure, L-lactate secretion above basal release
Procedure: (§5) L-lactate concentration was measured in a semi-automated manner using CMA Microdialysis AB enzymatic assay and a CMA 600 analyzer (Aurora Borealis, Schoonebeek, The Netherlands) as previously described. Briefly, cells (2 × 10^5 cells per well; 3 wells/condition) were seeded in 12-well plates with 2 mL of their routine culture medium. After 24 h, medium was replaced by 500 µL of DMEM containing 10 mmol/L D-glucose and supplemented with 2 mmol/L L-glutamine and 10% dialyzed FBS (Sigma-Aldrich), in the presence of the compounds or vehicle (DMSO). The initial concentration of L-lactate in the experimental medium was also assessed by including control wells containing only cell culture medium (no cells) on each plate. After incubation for 24 h, extracellular media were collected and deproteinized by centrifugation (15 min, 10,000 rpm, 4 °C) in 10 kDa cut-off filter tubes (VWR, Avantor, Leuven, Belgium). Differences in L-lactate concentrations between control and treated cells were calculated and normalized by the protein content in each well and expressed in µmol/h/mg protein. Oxygen-consumption rate (OCR) was measured using the Seahorse XF96 plate reader as previously reported. Briefly, cells (2 × 10^4 cells per well) were first permeabilized with 1 nM Seahorse XF Plasma Membrane Permeabilizer (#102504-100; Agilent, Machelen, Belgium) and respiration was stimulated by adding 10 mM pyruvate, 5 mM malate, and 2 mM ADP. After baseline OCR determination, compounds were added (to inhibit complex I) followed by 10 mM succinate to fuel complex II and rescue the electron transport chain. In some experiments, the effects of selected hits on basal OCR were evaluated in intact cells (including in the presence of MCT1/2 inhibitor AR-C155858 [29] or methylpyruvate). OCR data were normalized according to protein content in each well.
Figure 3 Compound-induced L-lactate release (Assay #1). Culture medium was collected after 24 h exposure to the indicated compounds (10 µM) and the amount of extracellular L-lactate release was determined in a semi-automated manner; dose-dependent effects of complex I inhibitor IACS are shown on the right (shaded bars). Bar graph depicts the extent of L-lactate secretion above the basal release as determined in the absence of any compound (n = 3, ** p < 0.01 for increased L-lactate release vs. reference compound aa).

mitochondrial complex I = mitochondrial complex I (Mus musculus, UniProt P03888+Q91WD5+Q9DC70); assay: Seahorse OCR in permeabilized CT26 cancer cells, mitochondrial complex I inhibition (Assay #2); type: cell-based; details: for pattern of OCR inhibition activity relative to aa: 1 and 10 µM; for IC50: pyruvate/malate, tested at 1 and 10 µM, read-out: OCR inhib. (IC50)
Procedure: as §5
(A–D). Graphs depict changes in O2 consumption rate (OCR) measured with the Seahorse technology on permeabilized CT26 cancer cells upon successive addition of pyruvate/malate, the indicated inhibitor and succinate. […] (E,F).

[4] = system: breast cancer 4T1 cancer cells; assay: Compound-induced L-lactate release (Assay #1), 4T1; type: cell-based, mouse; details: 4T1 cells, 24 h
Procedure: L-lactate concentration was measured in a semi-automated manner using CMA Microdialysis AB enzymatic assay and a CMA 600 analyzer (Aurora Borealis, Schoonebeek, The Netherlands) as previously described. Briefly, cells (2 × 10^5 cells per well; 3 wells/condition) were seeded in 12-well plates with 2 mL of their routine culture medium. After 24 h, medium was replaced by 500 µL of DMEM containing 10 mmol/L D-glucose and supplemented with 2 mmol/L L-glutamine and 10% dialyzed FBS (Sigma-Aldrich), in the presence of the compounds or vehicle (DMSO). The initial concentration of L-lactate in the experimental medium was also assessed by including control wells containing only cell culture medium (no cells) on each plate. […] Differences in L-lactate concentrations between control and treated cells were calculated and normalized by the protein content in each well and expressed in µmol/h/mg protein. Oxygen-consumption rate (OCR) was measured using the Seahorse XF96 plate reader as previously reported. […] In some experiments, the effects of selected hits on basal OCR were evaluated in intact cells (including in the presence of MCT1/2 inhibitor AR-C155858 [29] or methylpyruvate). […]
Suppl. […] Culture medium was collected after 24h exposure to the indicated compounds and lactate content was determined in a semi-automated manner. […]

3D tumor CT26 spheroids [5] = assay: Pimonidazole immunostaining of hypoxia in spheroids; type: cell-based, mouse; details: treated spheroids
Procedure: as §1
(§6) Figure 6 Radiosensitizing effects of selected complex I inhibitors. (A) Extent of surviving cancer cells post-exposure to radiotherapy and the indicated compounds (n = 3, * p < 0.05, ** p < 0.01 vs. vehicle condition).

[6] = system: cancer cells from dissociated spheroids; assay: Regrowth of cells from dissociated spheroids after irradiation and compound; type: cell-based, mouse; details: plated for 14 days, compared with aa
Source text: Finally, to document the expected re-oxygenation, spheroids treated with compounds aa, aj and am were exposed to the hypoxia probe pimonidazole.
as §6

3D tumor CT26 spheroids [7] = assay: Radiosensitizing effects in 3D tumor spheroids (6 Gy irradiation); type: cell-based, mouse; details: 6 Gy irradiation at day 4, day 10 vs day 3
Procedure: as §1, §2
We also took advantage of 3D tumor spheroids to evaluate whether they could radiosensitize tumors upon O2 sparing resulting from inhibition of O2 consumption. […]

| Compound | spheroid growth inhibition compared with reference compound aa (3D tumor CT26 spheroids [1]) | cytotoxic / growth inhibitory effects (CT26 colon cancer cells) | antiproliferative effects in Siha compared with MDA-MB-231 cells [2] | growth inhibitory activity (breast 4T1 cancer cells) | L-lactate release compared with reference compound aa [3] | [LAC] increase [3] | pattern of OCR inhibition activity relative to aa (mitochondrial complex I) | IC50 (mitochondrial complex I) | L-lactate release compared with aa compound [4] | 3D growth inhib. (%) (3D tumor CT26 spheroids [1]) | reduction of hypoxia (pimonidazole) (3D tumor CT26 spheroids [5]) | ability of cancer cells to re-grow after irradiation and compound [6] | change in spheroid size with irradiation (3D tumor CT26 spheroids [7]) |
| --- | --- | --- | --- | --- | --- | --- | --- | --- | --- | --- | --- | --- | --- |
| NC(=O)c1nnn(Cc2cc(Cl)c(C(=O)c3ccc(C(F)(F)F)cc3)c(Cl)c2)c1N [ag] | inhibited spheroid growth to the same extent as compound aa | very limited effects | Larger antiproliferative effects | more significant growth inhibitory activity | more potent inducers of L-lactate release | ~4 µmol/h/mg | – | – | – | – | – | – | – |
| NCc1cn(Cc2cc(Cl)c(C(=O)c3ccc(Cl)cc3)c(Cl)c2)nn1 [at] | – | – | – | – | – | ~0 µmol/h/mg | inactive | > 10 µM | less potent | – | – | – | – |
| NC(=O)c1nnn(Cc2cc(Cl)c(C(=O)C3CCCCC3)c(Cl)c2)c1N [compound aj] | significantly more active than reference compound aa | very limited effects | Larger antiproliferative effects | more significant growth inhibitory activity | more potent inducers of L-lactate release | ~4 µmol/h/mg | – | – | – | >50% | reduced hypoxia to a larger extent than compound aa | much lesser ability to re-grow | net reduction in the spheroid size |
| NC(=O)c1nnn(Cc2cc(Cl)c(Cc3ccc(Cl)cc3)c(Cl)c2)c1N [compound am] | significantly more active than reference compound aa | – | – | – | more potent inducers of L-lactate release | ~4 µmol/h/mg | – | ~10 µM | – | >50% | reduced hypoxia to a larger extent than compound aa | much lesser ability to re-grow | net reduction in the spheroid size |
| COC(=O)c1cn(Cc2cc(Cl)c(C(=O)c3ccc(Cl)cc3)c(Cl)c2)nn1 [compound au] | significantly lesser growth inhibitory effects than compound aa | very limited effects | Larger antiproliferative effects | more significant growth inhibitory activity | more potent inducers of L-lactate release | ~4 µmol/h/mg | equiactive | – | more | <25% | – | – | – |
